Cc1ccc(S(=O)[O-])cc1.[Na+]
solubility (mole fraction)
Conditions	in DMF	in acetone	in acetonitrile	in ethanol	in isopropanol	in methanol	in n-butanol	in n-propanol	in water
278.15 K	0.00114	0.00039	5.8e-05	0.0031	0.00083	0.0234	0.00032	0.00301	0.0172
283.15 K	0.00169	0.00047	7.7e-05	0.00328	0.00086	0.0313	0.00035	0.00311	0.0201
288.15 K	0.0025	0.00057	9.9e-05	0.00337	0.00089	0.04	0.00039	0.00321	0.0234
293.15 K	0.00365	0.00067	0.00013	0.00345	0.00093	0.0511	0.00043	0.00331	0.0272
298.15 K	0.00525	0.0008	0.00016	0.00354	0.00097	0.0665	0.00047	0.00347	0.0314
303.15 K	0.00747	0.00094	0.00021	0.00363	0.001	0.0851	0.00052	0.00364	0.0358
308.15 K	0.0105	0.00111	0.00027	0.00373	0.00105	0.106	0.00057	0.00381	0.0404
313.15 K	0.0146	0.0013	0.00033	0.00383	0.00109	0.13	0.00063	0.00401	0.0453
318.15 K	0.02	0.00151	0.00041	0.00393	0.00113	0.156	0.00069	0.00421	0.0514

— BigSolDB 2.1
